What is called EC50 is the midpoint of the concentration-response curve. Higher therefore signals a need for much substance. The Emax is the maximal effect, on the per cent scale that the assay sets.

The test concerns the target T1, human GLP-1R receptor (Homo sapiens, UniProt P43220).
T1 construct: expressed in transfected cells
The experiment in a line: GLP-1R low expression cell assay (cAMP TR-FRET, CHO-K1_hGLP-1Rlow_clone10 cells). Type of test: cell-based. The note with it: for EC50: cAMP TR-FRET, 30 min at 25° C. The procedure, abridged:
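Readout is cAMP TR-FRET after 30 min compound stimulation at 25 °C of a low-GLP-1R-expressing CHO-K1 clone (1,000 cells/well), with 10-point 3-fold serial dilutions. Percent activation versus a control GLP-1 peptide, from duplicates, was Hill-fitted to give EC50.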
Background: In TR-FRET formats the signal depends on donor and acceptor labels being close together.

The mark [1] stands for this setting: maximum activation relative to control GLP-1 peptide agonist.

T1 sequence (P43220 24-463): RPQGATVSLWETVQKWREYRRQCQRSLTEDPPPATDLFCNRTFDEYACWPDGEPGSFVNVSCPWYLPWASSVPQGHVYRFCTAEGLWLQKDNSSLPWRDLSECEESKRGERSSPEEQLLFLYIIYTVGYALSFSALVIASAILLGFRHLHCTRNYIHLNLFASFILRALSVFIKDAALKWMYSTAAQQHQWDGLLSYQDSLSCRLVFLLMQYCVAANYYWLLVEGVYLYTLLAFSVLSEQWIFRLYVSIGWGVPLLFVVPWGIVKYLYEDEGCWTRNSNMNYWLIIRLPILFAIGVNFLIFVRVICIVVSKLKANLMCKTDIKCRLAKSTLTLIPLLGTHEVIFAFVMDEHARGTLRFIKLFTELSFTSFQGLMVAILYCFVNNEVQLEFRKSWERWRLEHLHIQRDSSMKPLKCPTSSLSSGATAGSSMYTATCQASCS

On to `Cn1c(CN2CCC(c3ncccc3OCc3ccc(C#N)cc3F)CC2)nc2c(OC(F)F)cc(C(=O)O)cc21` [Compound 158, 2-((4-(3-((4-Cyano-2-fluorobenzyl)oxy)pyridin-2-yl)piperidin-1-yl)methyl)-4-(difluoromethoxy)-1-methyl-1H-benzo[d]imidazole-6-carboxylic acid], for which the EC50 was greater than 1000 nM. Under setting [1], this molecule displayed an Emax of 50 to 85%.

On to `Cn1c(CN2CC=C(c3cccc(OCc4ccc(Cl)cc4F)c3)CC2)nc2c(OC(F)F)cc(C(=O)O)cc21` [Compound 159, 2-((4-(3-((4-Chloro-2-fluorobenzyl)oxy)phenyl)-3,6-dihydropyridin-1(2H)-yl)methyl)-4-(difluoromethoxy)-1-methyl-1H-benzo[d]imidazole-6-carboxylic acid], for which the EC50 is 100 to 1000 nM. Also, the Emax under setting [1] was greater than 85%. Turning to `Cn1c(CN2CCC(c3cccc(OCc4ccc(C#N)cc4F)n3)CC2)nc2c(OC(C)(C)CF)cc(C(=O)O)cc21` [Compound 160, 2-((4-(6-((4-Cyano-2-fluorobenzyl)oxy)pyridin-2-yl)piperidin-1-yl)methyl)-4-((1-fluoro-2-methylpropan-2-yl)oxy)-1-methyl-1H-benzo[d]imidazole-6-carboxylic acid], the EC50 lay in the range of 100 to 1000 nM. This molecule also had an Emax under setting [1] greater than 85%. For `Cn1c(CN2CCC(c3cc(OCc4ccc(Cl)cc4F)ccc3F)CC2)nc2c(OC(F)F)cc(C(=O)O)cc21` [Compound 167, 2-((4-(5-((4-Chloro-2-fluorobenzyl)oxy)-2-fluorophenyl)piperidin-1-yl)methyl)-4-(difluoromethoxy)-1-methyl-1H-benzo[d]imidazole-6-carboxylic acid], the EC50 was greater than 1000 nM. Under setting [1], this molecule returned an Emax of 25 to 50%. For `Cn1c(CN2CCC(c3nccc(OCc4ccc(Cl)cc4F)n3)CC2)nc2c(OC(F)F)cc(C(=O)O)cc21` [Compound 168, 2-((4-(4-((4-Chloro-2-fluorobenzyl)oxy)pyrimidin-2-yl)piperidin-1-yl)methyl)-4-(difluoromethoxy)-1-methyl-1H-benzo[d]imidazole-6-carboxylic acid] the same measures were 10 to 100 nM and greater than 85%. Take `Cn1c(CN2CCC(c3cccc(OCc4ccc(Cl)cc4F)n3)CC2)nc2c(OCC(F)F)cc(C(=O)O)cc21` [Compound 169, 2-((4-(6-((4-Chloro-2-fluorobenzyl)oxy)pyridin-2-yl)piperidin-1-yl)methyl)-4-(2,2-difluoroethoxy)-1-methyl-1H-benzo[d]imidazole-6-carboxylic acid]: the EC50 is less than 10 nM. This molecule showed an Emax under setting [1] greater than 85%. The molecule `Cn1c(CN2CCC(c3cccc(OCc4ccc(Cl)cc4F)n3)CC2)nc2c(OCCF)cc(C(=O)O)cc21` [Compound 170, 2-((4-(6-((4-Chloro-2-fluorobenzyl)oxy)pyridin-2-yl)piperidin-1-yl)methyl)-4-(2-fluoroethoxy)-1-methyl-1H-benzo[d]imidazole-6-carboxylic acid] yielded an EC50 of less than 10 nM. Also, under setting [1], the maximal effect (Emax) is greater than 85%. `COc1c(OCc2ccc(Cl)cc2F)cccc1C1CCN(Cc2nc3c(OC(F)F)cc(C(=O)O)cc3n2C)CC1` [Compound 171, 2-((4-(3-((4-Chloro-2-fluorobenzyl)oxy)-2-methoxyphenyl)piperidin-1-yl)methyl)-4-(difluoromethoxy)-1-methyl-1H-benzo[d]imidazole-6-carboxylic acid] had an EC50 greater than 1000 nM. The molecule also had an Emax under setting [1] of less than 25%. In the case of `N#Cc1ccc(COc2cccc(C3CCN(Cc4nc5ccc(C(=O)O)c(O)c5n4C[C@@H]4CCO4)CC3)n2)c(F)c1` [Compound 172, (S)-2-((4-(6-((4-cyano-2-fluorobenzyl)oxy)pyridin-2-yl)piperidin-1-yl)methyl)-7-hydroxy-1-(oxetan-2-ylmethyl)-1H-benzo[d]imidazole-6-carboxylic acid], the “GLP-1R Low Expression Cell Assay Emax (%)” value under setting [1] is “+ (Emax is <25%)”. As to `Cn1c(CN2CCC(c3cccc(OCc4ccc(C5CCCO5)cc4F)n3)CC2)nc2c(OC(F)F)cc(C(=O)O)cc21` (stereo not drawn) [Compound 177, 4-(Difluoromethoxy)-2-((4-(6-((2-fluoro-4-(tetrahydrofuran-2-yl)benzyl)oxy)pyridin-2-yl)piperidin-1-yl)methyl)-1-methyl-1H-benzo[d]imidazole-6-carboxylic acid], the EC50 was greater than 1000 nM. For the same molecule, under setting [1], the Emax was in the range of 50 to 85%. For `COc1cc(C(=O)O)cc2c1nc(N(C)[C@H]1CC[C@H](c3cccc(OCc4ccc(C#N)cc4F)n3)CC1)n2C` [Compound 178, 2-(((1r,4r)-4-(6-((4-Cyano-2-fluorobenzyl)oxy)pyridin-2-yl)cyclohexyl)(methyl)amino)-4-methoxy-1-methyl-1H-benzo[d]imidazole-6-carboxylic acid] the same measures were less than 10 nM and greater than 85%. `Cn1c(CN2CCC(c3cccc(OCc4ccc(C#N)cc4F)c3Cl)CC2)nc2c(OC(F)F)cc(C(=O)O)cc21` [Compound 179, 2-((4-(2-Chloro-3-((4-cyano-2-fluorobenzyl)oxy)phenyl)piperidin-1-yl)methyl)-4-(difluoromethoxy)-1-methyl-1H-benzo[d]imidazole-6-carboxylic acid] gave an EC50 greater than 1000 nM. The molecule further displayed a maximal response (Emax) under setting [1] of 25 to 50%.

As to `Cn1c(CN2CCC(c3cccc(OCc4ccc(C#N)cc4F)n3)CC2)nc2c(OC(C)(F)F)cc(C(=O)O)cc21` [Compound 180, 2-((4-(6-((4-Cyano-2-fluorobenzyl)oxy)pyridin-2-yl)piperidin-1-yl)methyl)-4-(1,1-difluoroethoxy)-1-methyl-1H-benzo[d]imidazole-6-carboxylic acid], the EC50 lay within 10 to 100 nM. Further, the Emax under setting [1] is greater than 85%. For `Cn1c(CN2CCC(c3cc(OCc4ccc(C#N)cc4F)ccc3F)CC2)nc2c(OC(F)F)cc(C(=O)O)cc21` [Compound 181, 2-((4-(5-((4-Cyano-2-fluorobenzyl)oxy)-2-fluorophenyl)piperidin-1-yl)methyl)-4-(difluoromethoxy)-1-methyl-1H-benzo[d]imidazole-6-carboxylic acid], in that order: greater than 1000 nM and 50 to 85%. For `Cn1c(CN2CCC(c3cccc(F)c3OCc3ccc(C#N)cc3F)CC2)nc2c(OC(F)F)cc(C(=O)O)cc21` [Compound 182, 2-((4-(2-((4-Cyano-2-fluorobenzyl)oxy)-3-fluorophenyl)piperidin-1-yl)methyl)-4-(difluoromethoxy)-1-methyl-1H-benzo[d]imidazole-6-carboxylic acid], in that order: 100 to 1000 nM and greater than 85%.

Take `Cn1c(CN2CCC(c3cccc(OCc4ccc(C#N)cc4F)n3)CC2)nc2c(OCCF)cc(C(=O)O)cc21` [Compound 183, 2-((4-(6-((4-Cyano-2-fluorobenzyl)oxy)pyridin-2-yl)piperidin-1-yl)methyl)-4-(2-fluoroethoxy)-1-methyl-1H-benzo[d]imidazole-6-carboxylic acid]: the half-maximal effective concentration (EC50) is less than 10 nM. The molecule further displayed a maximal response (Emax) under setting [1] greater than 85%. For `Cn1c(CN2CCC(c3nccc(OCc4ccc(C#N)cc4F)n3)CC2)nc2c(OC(F)F)cc(C(=O)O)cc21` [Compound 184, 2-((4-(4-((4-Cyano-2-fluorobenzyl)oxy)pyrimidin-2-yl)piperidin-1-yl)methyl)-4-(difluoromethoxy)-1-methyl-1H-benzo[d]imidazole-6-carboxylic acid] the same measures were 100 to 1000 nM and greater than 85%. For `Cn1c(CN2CCC(c3ccc(F)c(OCc4ccc(C(N)=O)cc4F)n3)CC2)nc2c(OC(F)F)cc(C(=O)O)cc21` [Compound 185, 2-((4-(6-((4-carbamoyl-2-fluorobenzyl)oxy)-5-fluoropyridin-2-yl)piperidin-1-yl)methyl)-4-(difluoromethoxy)-1-methyl-1H-benzo[d]imidazole-6-carboxylic acid] the same measures were 100 to 1000 nM and greater than 85%. Take `Cn1c(CN2CCC(c3cccc(OCc4ccc(Cl)cc4F)n3)CC2)nc2c(NCCF)cc(C(=O)O)cc21` [Compound 186, 2-((4-(6-((4-Chloro-2-fluorobenzyl)oxy)pyridin-2-yl)piperidin-1-yl)methyl)-4-((2-fluoroethyl)amino)-1-methyl-1H-benzo[d]imidazole-6-carboxylic acid]: the EC50 was 100 to 1000 nM. This molecule also showed an Emax under setting [1] greater than 85%. For `COc1c(C(=O)O)ccc2c1nc(CN1CCC(c3cccc(OCc4ccc(Cl)cc4F)n3)CC1)n2C` [Compound 187, 2-((4-(6-((4-Chloro-2-fluorobenzyl)oxy)pyridin-2-yl)piperidin-1-yl)methyl)-4-methoxy-1-methyl-1H-benzo[d]imidazole-5-carboxylic acid], in that order: greater than 1000 nM and less than 25%. With `Cn1c(CN2CCC(c3cccc(OCc4ccc(Cl)cc4F)n3)CC2)nc2c(OCC3(F)CC3)cc(C(=O)O)cc21` [Compound 188, 2-((4-(6-((4-Chloro-2-fluorobenzyl)oxy)pyridin-2-yl)piperidin-1-yl)methyl)-4-((1-fluorocyclopropyl)methoxy)-1-methyl-1H-benzo[d]imidazole-6-carboxylic acid], the 50% effective concentration (EC50) fell in the range of 10 to 100 nM. The same molecule came in with an Emax under setting [1] greater than 85%. For `Cn1c(CN2CCC(c3cccc(OCc4ccc(Cl)cc4F)n3)CC2)nc2c(C#N)cc(C(=O)O)cc21` [Compound 189, 2-((4-(6-((4-chloro-2-fluorobenzyl)oxy)pyridin-2-yl)piperidin-1-yl)methyl)-4-cyano-1-methyl-1H-benzo[d]imidazole-6-carboxylic acid], the EC50 lay within 10 to 100 nM. The same molecule registered a maximal effect (Emax) under setting [1] greater than 85%. Take `Cn1c(CN2CCC(c3cccc(OCc4ccc(Cl)cc4F)n3)CC2)nc2c(OC(F)F)cc(C(=O)O)c(F)c21` [Compound 190, 2-((4-(6-((4-Chloro-2-fluorobenzyl)oxy)pyridin-2-yl)piperidin-1-yl)methyl)-4-(difluoromethoxy)-7-fluoro-1-methyl-1H-benzo[d]imidazole-6-carboxylic acid]: the EC50 lay within 10 to 100 nM. For the same molecule, the Emax under setting [1] is greater than 85%.

The record behind these values is patent US20240368120A1 (Terns Pharmaceuticals, Inc., priority 2023, published 2024).
